System: rodent lifetime carcinogenesis bioassay, tumor incidence TD50
Test: carcinogenic potency in animals, long-term in vivo studies, CPDB compilation (AID 1745844)
Settings: rat, strain Fischer 344, in feed

SMILES: Nc1c(Br)cc(Br)c2c1C(=O)c1ccccc1C2=O
- TD50 (females, site: liver, lesion: hepatocholangiocarcinoma, dosed 103 weeks, study length 104 weeks): 566 mg/kg/day
- TD50 (females, site: rectum, lesion: adenocarcinoma, dosed 103 weeks, study length 104 weeks): 420 mg/kg/day
- TD50 (females, site: rectum, lesion: polypoid adenoma, dosed 40 weeks, study length 66 weeks): 217 mg/kg/day
- TD50 (females, site: rectum, lesion: polypoid adenoma, dosed 103 weeks, study length 104 weeks): 74 mg/kg/day
- TD50 (females, site: skin, lesion: squamous-cell papilloma, dosed 103 weeks, study length 104 weeks): 2600 mg/kg/day
- TD50 (females, site: urinary bladder, lesion: transitional-cell carcinoma + transitional-cell papilloma + transitional epithelium, squamous-cell carcinoma + transitional ep, dosed 66 weeks, study length 66 weeks): 2190 mg/kg/day
- TD50 (females, site: urinary bladder, lesion: transitional-cell carcinoma + transitional-cell papilloma + transitional epithelium, squamous-cell carcinoma + transitional ep, dosed 103 weeks, study length 104 weeks): 304 mg/kg/day
- TD50 (females, site: urinary bladder, lesion: transitional-cell carcinoma, dosed 66 weeks, study length 66 weeks): 4830 mg/kg/day
- TD50 (females, site: urinary bladder, lesion: transitional-cell carcinoma, dosed 103 weeks, study length 104 weeks): 656 mg/kg/day
- TD50 (females, site: urinary bladder, lesion: transitional-cell papilloma, dosed 103 weeks, study length 104 weeks): 782 mg/kg/day
- TD50 (males, site: any site (literature study), lesion: several types, types named in the paper, dosed 39 weeks, study length 66 weeks): 123 mg/kg/day
- TD50 (males, site: any site (literature study), lesion: several types, types named in the paper, dosed 66 weeks, study length 66 weeks): 193 mg/kg/day
- TD50 (males, site: any site (literature study), lesion: several types, types named in the paper, dosed 103 weeks, study length 104 weeks): 130 mg/kg/day
- TD50 (males, site: colon + kidney + liver + rectum + urinary bladder, lesion: adenocarcinoma + polypoid adenoma + tubule adenoma + tubule carcinoma + hepatocholangiocarcinoma + hepatocellular adenoma + hepatoce, dosed 103 weeks, study length 104 weeks): 54.6 mg/kg/day
- TD50 (males, site: colon + rectum, lesion: adenocarcinoma, dosed 66 weeks, study length 66 weeks): 1870 mg/kg/day
- TD50 (males, site: colon + rectum, lesion: adenocarcinoma, dosed 103 weeks, study length 104 weeks): 320 mg/kg/day
- TD50 (males, site: colon + rectum, lesion: polypoid adenoma, dosed 39 weeks, study length 66 weeks): 297 mg/kg/day
- TD50 (males, site: colon + rectum, lesion: polypoid adenoma, dosed 66 weeks, study length 66 weeks): 426 mg/kg/day
- TD50 (males, site: colon + rectum, lesion: polypoid adenoma, dosed 103 weeks, study length 104 weeks): 64.3 mg/kg/day
- TD50 (males, site: colon, lesion: adenocarcinoma, dosed 103 weeks, study length 104 weeks): 2010 mg/kg/day
- TD50 (males, site: colon, lesion: polypoid adenoma, dosed 103 weeks, study length 104 weeks): 1660 mg/kg/day
- TD50 (males, site: kidney, lesion: tubule adenoma + tubule carcinoma, dosed 39 weeks, study length 66 weeks): 239 mg/kg/day
- TD50 (males, site: kidney, lesion: tubule adenoma + tubule carcinoma, dosed 66 weeks, study length 66 weeks): 1770 mg/kg/day
- TD50 (males, site: kidney, lesion: tubule adenoma + tubule carcinoma, dosed 103 weeks, study length 104 weeks): 264 mg/kg/day
- TD50 (males, site: kidney, lesion: tubule adenoma, dosed 39 weeks, study length 66 weeks): 239 mg/kg/day
- TD50 (males, site: kidney, lesion: tubule adenoma, dosed 66 weeks, study length 66 weeks): 1770 mg/kg/day
- TD50 (males, site: kidney, lesion: tubule adenoma, dosed 103 weeks, study length 104 weeks): 292 mg/kg/day
- TD50 (males, site: liver, lesion: hepatocellular adenoma + hepatoblastoma + hepatocellular carcinoma, dosed 39 weeks, study length 66 weeks): 70.3 mg/kg/day
- TD50 (males, site: liver, lesion: hepatocellular adenoma + hepatoblastoma + hepatocellular carcinoma, dosed 66 weeks, study length 66 weeks): 102 mg/kg/day
- TD50 (males, site: liver, lesion: hepatocellular adenoma + hepatoblastoma + hepatocellular carcinoma, dosed 103 weeks, study length 104 weeks): 53.8 mg/kg/day
- TD50 (males, site: liver, lesion: hepatocellular adenoma + hepatocellular carcinoma, dosed 39 weeks, study length 66 weeks): 70.3 mg/kg/day
- TD50 (males, site: liver, lesion: hepatocellular adenoma + hepatocellular carcinoma, dosed 66 weeks, study length 66 weeks): 102 mg/kg/day
- TD50 (males, site: liver, lesion: hepatocellular adenoma + hepatocellular carcinoma, dosed 103 weeks, study length 104 weeks): 53.8 mg/kg/day
- TD50 (males, site: liver, lesion: hepatocellular adenoma, dosed 39 weeks, study length 66 weeks): 97.8 mg/kg/day
- TD50 (males, site: liver, lesion: hepatocellular adenoma, dosed 66 weeks, study length 66 weeks): 386 mg/kg/day
- TD50 (males, site: liver, lesion: hepatocellular adenoma, dosed 103 weeks, study length 104 weeks): 71.4 mg/kg/day
- TD50 (males, site: liver, lesion: hepatocellular carcinoma, dosed 39 weeks, study length 66 weeks): 95.8 mg/kg/day
- TD50 (males, site: liver, lesion: hepatocellular carcinoma, dosed 66 weeks, study length 66 weeks): 114 mg/kg/day
- TD50 (males, site: liver, lesion: hepatocellular carcinoma, dosed 103 weeks, study length 104 weeks): 59.6 mg/kg/day
- TD50 (males, site: liver, lesion: hepatocholangiocarcinoma, dosed 39 weeks, study length 66 weeks): 1240 mg/kg/day
- TD50 (males, site: liver, lesion: hepatocholangiocarcinoma, dosed 103 weeks, study length 104 weeks): 1230 mg/kg/day
- TD50 (males, site: lung, lesion: alveolar/bronchiolar adenoma + alveolar/bronchiolar carcinoma, dosed 103 weeks, study length 104 weeks): 794 mg/kg/day
- TD50 (males, site: lung, lesion: alveolar/bronchiolar adenoma, dosed 103 weeks, study length 104 weeks): 1290 mg/kg/day
- TD50 (males, site: rectum, lesion: adenocarcinoma, dosed 103 weeks, study length 104 weeks): 363 mg/kg/day
- TD50 (males, site: rectum, lesion: polypoid adenoma, dosed 39 weeks, study length 66 weeks): 297 mg/kg/day
- TD50 (males, site: rectum, lesion: polypoid adenoma, dosed 66 weeks, study length 66 weeks): 426 mg/kg/day
- TD50 (males, site: rectum, lesion: polypoid adenoma, dosed 103 weeks, study length 104 weeks): 64.3 mg/kg/day
- TD50 (males, site: testis, lesion: interstitial-cell adenoma, bilateral + interstitial-cell adenoma, dosed 103 weeks, study length 104 weeks): 133 mg/kg/day
- TD50 (males, site: urinary bladder, lesion: transitional-cell carcinoma + transitional-cell papilloma, dosed 66 weeks, study length 66 weeks): 3640 mg/kg/day
- TD50 (males, site: urinary bladder, lesion: transitional-cell carcinoma + transitional-cell papilloma, dosed 103 weeks, study length 104 weeks): 564 mg/kg/day
- TD50 (males, site: urinary bladder, lesion: transitional-cell carcinoma, dosed 66 weeks, study length 66 weeks): 3640 mg/kg/day
- TD50 (males, site: urinary bladder, lesion: transitional-cell carcinoma, dosed 103 weeks, study length 104 weeks): 1790 mg/kg/day
- TD50 (males, site: urinary bladder, lesion: transitional-cell papilloma, dosed 103 weeks, study length 104 weeks): 846 mg/kg/day

Source: PubChem BioAssay AID1745844 (Carcinogenic Potency Database (CPDB), 2022)
